We go through two compounds from patent US20090275497A1, “METHOD FOR IDENTIFYING MODULATORS OF THE ACTIVITY OF ION-CHANNELS RECEPTORS” (CENTRE NATIONAL DE LA RECHERCHE SCIENTIFIQUE (CNRS), priority 2004, published 2009).

SMILES strings stand for the structures.

For experiment [1], the system named is P2X2 and GABA-A receptors (rat GABA-A alpha2 beta3). The format is cell-based. The note with it: for fluorescence of the calcium probe on application of the substance alone: 100 μM, oocytes co-expressing P2X2 and GABA-A receptors, resting potential. As to the method: (§1) Variations in fluorescence were analysed using IpLab software.
Experiment [2] deals with T1, P2X2 and GABA-A receptors (rat GABA-A alpha2 beta3) (Rattus norvegicus, UniProt P23576+P63079).
T1 construct: expressed in transfected cells; host or cells: Xenopus oocytes (nuclear cDNA injection)
T1 sequence (P23576 29-451): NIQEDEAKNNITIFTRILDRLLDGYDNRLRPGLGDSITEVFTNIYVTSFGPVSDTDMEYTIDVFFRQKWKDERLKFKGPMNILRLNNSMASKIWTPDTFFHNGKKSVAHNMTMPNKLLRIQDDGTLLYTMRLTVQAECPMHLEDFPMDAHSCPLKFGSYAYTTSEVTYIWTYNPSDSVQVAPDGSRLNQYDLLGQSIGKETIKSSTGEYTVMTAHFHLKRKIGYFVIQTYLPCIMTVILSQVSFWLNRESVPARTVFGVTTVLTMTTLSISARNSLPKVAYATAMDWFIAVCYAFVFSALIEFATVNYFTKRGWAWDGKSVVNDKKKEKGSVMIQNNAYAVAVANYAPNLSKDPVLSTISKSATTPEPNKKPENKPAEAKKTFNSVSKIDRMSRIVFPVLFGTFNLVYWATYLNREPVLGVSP
T1 sequence (P63079 26-473): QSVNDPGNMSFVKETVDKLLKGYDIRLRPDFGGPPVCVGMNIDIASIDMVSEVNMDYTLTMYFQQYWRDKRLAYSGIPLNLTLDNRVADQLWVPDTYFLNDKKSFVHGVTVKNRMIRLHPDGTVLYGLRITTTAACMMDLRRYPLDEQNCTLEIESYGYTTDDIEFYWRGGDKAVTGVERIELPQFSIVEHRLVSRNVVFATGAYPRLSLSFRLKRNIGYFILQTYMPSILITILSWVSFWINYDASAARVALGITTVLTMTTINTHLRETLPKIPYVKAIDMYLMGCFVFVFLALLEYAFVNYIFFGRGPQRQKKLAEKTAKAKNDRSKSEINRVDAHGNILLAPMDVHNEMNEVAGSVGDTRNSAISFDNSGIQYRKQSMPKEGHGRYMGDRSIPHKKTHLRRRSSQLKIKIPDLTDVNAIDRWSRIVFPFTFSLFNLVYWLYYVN
The format is cell-based. Here is the method:
as §1

Experiment [3] concerns oocyte not expressing P2X and GABA receptors. As to the kind of experiment: Calcium green fluorescence recording, oocytes expressing no receptors. It is filed as cell-based, Xenopus. Particulars: calcium green probe, FIG. 1. Here is the method: (§2) Then, using video-microscopy (Nikon), the fluorescence emitted by oocytes maintained in a standard solution (Ringer solution containing 1.8 mM calcium chloride), perfused at 3 ml/min, has been recorded. […] Variations in fluorescence were analysed using IpLab software.

The target of the next experiment is T2, rat P2X2 receptors (Rattus norvegicus, UniProt P49653).
T2 construct: expressed in transfected cells; host or cells: Xenopus oocytes (nuclear cDNA injection)
T2 sequence (P49653 1-472): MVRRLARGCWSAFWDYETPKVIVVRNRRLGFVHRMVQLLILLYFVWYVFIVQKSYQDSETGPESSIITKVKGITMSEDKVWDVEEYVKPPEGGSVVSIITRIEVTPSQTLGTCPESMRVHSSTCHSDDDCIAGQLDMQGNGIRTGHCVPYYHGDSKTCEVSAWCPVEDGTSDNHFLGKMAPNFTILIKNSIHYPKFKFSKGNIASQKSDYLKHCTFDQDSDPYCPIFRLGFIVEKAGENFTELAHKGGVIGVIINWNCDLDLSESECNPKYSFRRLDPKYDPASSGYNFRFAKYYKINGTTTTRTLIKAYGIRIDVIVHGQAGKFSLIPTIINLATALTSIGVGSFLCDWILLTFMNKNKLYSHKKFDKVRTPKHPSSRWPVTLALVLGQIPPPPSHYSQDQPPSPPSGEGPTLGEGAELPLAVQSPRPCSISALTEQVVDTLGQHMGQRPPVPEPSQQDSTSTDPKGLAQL
As to the kind of experiment: Calcium green fluorescence recording, oocytes expressing P2X2 receptors alone. It is filed as cell-based. The note with it: oocytes expressing only P2X2 receptors, FIG. 2; for fluorescence (calcium influx) on application of the substance alone: calcium green probe. Here is the method:
as §2

Where [4] appears, read: oocyte co-expressing GABA-A and P2X2 receptors, FIG. 4.

On to `NCCCC(=O)O` [GABA, gamma-Aminobutyric acid], for which, in experiment [1], the “fluorescence of the calcium probe on application of the substance alone” value is listed as “does not modify fluorescence intensity”. Also, the “calcium response on co-application ATP+GABA compared with ATP alone” value in experiment [1] (ATP+GABA 100 μM of each, FIG. 3) is recorded as “lower calcium response”. In addition, the “percentage inhibition of the ATP calcium response” value in experiment [2] (co-application ATP+GABA 100 μM of each, depends on expression ratio of P2X and GABA receptors) is reported as 20-25%. Also, in experiment [2] (setting [4]), the “fluorescence intensity when GABA is applied at the peak of the ATP response” value was “decrease in fluorescence intensity”; the “fluorescence when application of GABA is stopped during co-application of ATP and GABA” value is listed as “increase in fluorescence”. Further, the “modification of the fluorescence on application” value in experiment [3] is reported as “No modification”. The “effect of GABA on the increase in fluorescence induced by ATP” value at rat P2X2 receptors (co-application ATP+GABA) is reported as “not altered”. Moreover, the “fluorescence (calcium influx) on application of the substance alone” value on rat P2X2 receptors is reported as “no effect”.
For `Nc1ncnc2c1ncn2[C@@H]1O[C@H](COP(=O)(O)OP(=O)(O)OP(=O)(O)O)[C@@H](O)[C@H]1O` [ATP], in experiment [1], the “fluorescence of the calcium probe on application of the substance alone” value is given as “marked transient increase”. The “modification of the fluorescence on application” value in experiment [3] is “No modification”. Further, the “fluorescence (calcium influx) on application of the substance alone” value at rat P2X2 receptors is “transient increase in fluorescence”.
